Experimental data published in article PMC2962730 (Journal of neurochemistry, 2010).
Changes are numbered by the printed parent chain.

Tests used:
[1] = molecular target: T1, hVAChT Y60A (Homo sapiens, UniProt Q16572, Y60A); assay: ACh equilibrium binding by competition against [3H]vesamicol
T1 sequence (Q16572 1-532 Y60A): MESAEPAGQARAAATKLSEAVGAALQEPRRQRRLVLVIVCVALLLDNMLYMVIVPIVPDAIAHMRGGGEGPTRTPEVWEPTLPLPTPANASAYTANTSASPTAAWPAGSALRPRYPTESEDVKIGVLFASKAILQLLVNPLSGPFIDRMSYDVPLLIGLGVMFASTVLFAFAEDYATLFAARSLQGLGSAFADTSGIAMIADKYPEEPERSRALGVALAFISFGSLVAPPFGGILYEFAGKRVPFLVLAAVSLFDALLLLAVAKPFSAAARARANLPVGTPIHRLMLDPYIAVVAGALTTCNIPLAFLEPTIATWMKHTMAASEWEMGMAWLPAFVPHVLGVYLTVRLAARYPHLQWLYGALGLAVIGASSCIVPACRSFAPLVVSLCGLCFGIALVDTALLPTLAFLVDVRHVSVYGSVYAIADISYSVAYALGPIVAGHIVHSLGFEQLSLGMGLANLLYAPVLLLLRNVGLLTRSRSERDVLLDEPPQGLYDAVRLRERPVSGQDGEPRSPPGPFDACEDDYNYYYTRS

[2] = molecular target: T2, hVAChT C391A (Homo sapiens, UniProt Q16572, C391A); assay: [3H]ACh transport; assay type: biochemical
T2 sequence (Q16572 1-532 C391A): T1 sequence (Q16572 1-532 Y60A) with A60Y, C391A

[3] = molecular target: T3, hVAChT W331A (Homo sapiens, UniProt Q16572, W331A); assay: ACh equilibrium binding by competition against [3H]vesamicol
T3 sequence (Q16572 1-532 W331A): T1 sequence (Q16572 1-532 Y60A) with A60Y, W331A

[4] = molecular target: T1, hVAChT Y60A; assay: [3H]ACh transport; assay type: biochemical
[5] = molecular target: T4, hVAChT A321F (Homo sapiens, UniProt Q16572, A321F); assay: [3H]vesamicol saturation binding; conditions: pH 7.4
T4 sequence (Q16572 1-532 A321F): T1 sequence (Q16572 1-532 Y60A) with A60Y, A321F

[6] = molecular target: T5, hVAChT Y60H (Homo sapiens, UniProt Q16572, Y60H); assay: [3H]vesamicol saturation binding; conditions: pH 7.4
T5 sequence (Q16572 1-532 Y60H): T1 sequence (Q16572 1-532 Y60A) with A60H

With `CC(=O)OCC[N+](C)(C)C` [ACh, acetylcholine] the Kd [1] was 8.2 ± 0.7 mM, the “FHA, fraction of the ACh sites that have high affinity” value ([1]; Y60A hVAChT, pH 7.4) was 0.92 ± 0.02 and the “ACh transport faster than wild-type” value ([2]; C391A hVAChT vs wild-type) was “about 2 times”. For the same compound, the “Vmax/Bmax, ACh transport normalized to Bmax” value ([2]; C391A hVAChT, pH 7.4) was 15 ± 2 min⁻¹, the Km ([2]; read-out: KM, Michaelis-Menten constant for ACh transport, C391A hVAChT, pH 7.4) was 1.8 ± 0.3 mM and the “ACh bound more weakly than by wild-type” value ([3]; W331A hVAChT vs wild-type) was 11 fold. The “FHA, fraction of the ACh sites that have high affinity” value ([3]; W331A hVAChT, pH 7.4, monophasic fit, FHA fixed to 1) was 1.0, the “Vmax/Bmax, ACh transport normalized to Bmax” value ([4]; pH 7.4) was 4.7 ± 0.8 min⁻¹ and the Km ([4]; read-out: KM, Michaelis-Menten constant for ACh transport, pH 7.4) was 480 ± 320 µM.

In the case of `O[C@@H]1CCCC[C@H]1N1CCC(c2ccccc2)CC1` (racemic) [vesamicol, ( )-trans-2-(4-phenylpiperidino)cyclohexanol], the “Bmax, maximal specific [3H]vesamicol binding (VAChT expression level)” value [5] is reported as 21 ± 1 pmol/mg and the “Bmax, maximal specific [3H]vesamicol binding (VAChT expression level)” value [6] is reported as 15 ± 1 pmol/mg.
